Measured values reported in patent publication US7586003B2, “Derivatives of seleno-amino acids” (Zinpro Corporation, priority 2005, dated 2009).

How the values were obtained:
[1] = Tissue selenium content of lactating cows fed selenium premixes (milk serum, plasma, liver, whole blood); assay type: in vivo; details: for Liver Se / Milk Serum Se / Plasma Se / Whole Blood Se: female, cow
Method: (§1) Three premixes were prepared for use in a field study in lactating cows. One of the premixes contained no additional source of selenium and was intended to serve as the placebo. The second contained sodium selenite and the third contained N-Succinyl L-Selenomethionine (Compound 2). Each of the premixes was prepared by mixing an amount of the selenium source with sufficient amount of finely ground sugar to contain 250 ppm of selenium. Each premix was color identified by the incorporation of a solution of a food color during formulation and given a letter designation by random selection. […] This was done to avoid any possible biases in the interpretation of the results of the feeding experiments. Thirty lactating cows were fed one of the three premixes as a daily topdress. The effect of these selenium sources on tissue selenium content and whole blood glutathione peroxidase activity were determined. All cows were fed a total mixed diet devoid of added selenium for an initial 8-week depletion period. Daily rations were topdressed with an amount of the premix to provide 7.5 mg selenium. Treatments were continued for 8-week followed by a 4-week depletion period. Milk samples were collected on one day per week beginning the week prior to the first depletion period (Week 0) and continuing through the 20 weeks of the experiment. The selenium content of the milk serum obtained after the samples were defatted was determined. Blood samples were collected on one day per week beginning the week prior to the first depletion period (Week 0) and at four week intervals throughout the experiment (Weeks 8, 12, 16 and 20 in Table 1). The blood samples were draw into trace-element free vacutainer tubes containing an anticoagulant. Aliquots of whole blood were analyzed for selenium and glutathione peroxidase activity. Other aliquots of blood were centrifuged to harvest plasma and the selenium content of the plasma samples was determined. Liver samples were obtained by biopsy on one day per week beginning the week prior to the first depletion period (Week 0) and at four week intervals throughout the experiment (Weeks 8, 12, 16 and 20 in Table 1). Liver samples were analyzed for selenium content. […] The dramatic changes in the selenium concentrations in response to changes in dietary intake of selenium indicate that these tissues are sensitive indicators of the dietary selenium status of the lactating cows. […] The changes in the selenium concentration and glutathione peroxidase activity (GPX) in whole blood in response to changing dietary selenium intake were less sensitive than those in milk serum, plasma and liver.

glutathione peroxidase = assay: Whole-blood glutathione peroxidase activity of lactating cows fed selenium premixes; assay type: in vivo
Method: as §1

Solubility in water = details: in words; partly relative to parent seleno-amino acid
[2] = Stability compared with parent seleno-amino acid
[3] = Wk 0, before first depletion period
[4] = Wk 8, end of 8-week depletion, before treatment
[5] = Wk 12, 4 weeks of topdress providing 7.5 mg selenium daily
[6] = Wk 16, 8 weeks of topdress providing 7.5 mg selenium daily
[7] = Wk 20, end of 4-week second depletion

## O=[Se](O)O [Sodium Selenite, reference compound]
[1]; Wk12 & Wk 16, 7.5 mg selenium daily
  Change of selenium concentrations in milk serum, plasma and liver on supplemented diet: progressive and significant increases
Glutathione peroxidase; [3]
  Whole Blood GPX: 17.3 EU/ml
Glutathione peroxidase; [4]
  Whole Blood GPX: 17.9 EU/ml
Glutathione peroxidase; [5]
  Whole Blood GPX: 17.6 EU/ml
Glutathione peroxidase; [6]
  Whole Blood GPX: 16.1 EU/ml
Glutathione peroxidase; [7]
  Whole Blood GPX: 17.9 EU/ml

## C[Se]CC[C@@H]1NC(=O)NC1=O [Compound 4, (S)-5-(2-(methylselanyl)ethyl)midazolidine-2,4-dione]
Solubility in water
  Solubility in water: less soluble
[2]
  Stability relative to parent seleno-amino acid: appears to be more stable than the parent seleno-amino acid

## C[Se]CC[C@H](NC(N)=O)C(=O)O [Compound 3, N-Carbamoyl L-Selenomethionine]
Solubility in water
  Solubility in water: more soluble in water
[2]; solution in water
  Stability of the solution relative to parent seleno-amino acid: appears to be more stable than the parent seleno-amino acid

## C[Se]CC[C@H](N)C(=O)OC(C)C.Cl [Compound 1, L-Selenomethionine Isopropyl Ester Hydrochloride]
Solubility in water
  Solubility in water: readily soluble in water
[2]; in the solid state and in solution
  Stability relative to L-selenomethionine: significantly more stable than L-selenomethionine

## C[Se]CC[C@H](NC(=O)CCC(=O)O)C(=O)O [Compound 2, (S)-4-(1-carboxy-3-(methylselanyl)propylamino)-4-oxobutanoic Acid]
[1]; in vivo, 0 week of experiment
  Liver Se: 1151 ng/g dry wt.
  Milk Serum Se: 14.96 ng/mL
  Plasma Se: 63.5 ng/mL
  Whole Blood Se: 144.0 ng/mL
[1]; in vivo, 8 week of experiment
  Liver Se: 690 ng/g dry wt.
  Milk Serum Se: 4.30 ng/mL
  Plasma Se: 43.6 ng/mL
  Whole Blood Se: 136.3 ng/mL
[1]; in vivo, 20 week of experiment
  Liver Se: 1003 ng/g dry wt.
  Milk Serum Se: 10.91 ng/mL
  Plasma Se: 52.2 ng/mL
  Whole Blood Se: 112.1 ng/mL
[1]; in vivo
  Bioavailability as source of dietary selenium: more bioavailable source of dietary selenium than sodium selenite
Glutathione peroxidase; [3]
  Whole Blood GPX: 18.2 EU/ml
Glutathione peroxidase; [4]
  Whole Blood GPX: 19.2 EU/ml
Glutathione peroxidase; [5]
  Whole Blood GPX: 18.7 EU/ml
Glutathione peroxidase; [6]
  Whole Blood GPX: 17.5 EU/ml
Glutathione peroxidase; [7]
  Whole Blood GPX: 19.8 EU/ml
